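Briefly, cells in 96-well plates were exposed to five compound concentrations for 48 h, and endpoints were estimated by linear interpolation. GI50 = concentration required for 50% inhibition of growth. TGI denotes the concentration required for complete inhibition of growth.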
Experiments:
Assay in all cases: NCI anticancer screen, dose series, 48 h
786-0 renal = tested on: 786-0 renal
A549 NSCLC = tested on: A549 NSCLC
ACHN renal = tested on: ACHN renal
BT-549 breast = tested on: BT-549 breast
CAKI-1 renal = tested on: CAKI-1 renal
CCRF-CEM leukemia = tested on: CCRF-CEM leukemia
COLO 205 colon = tested on: COLO 205 colon
DU-145 prostate = tested on: DU-145 prostate
EKVX NSCLC = tested on: EKVX NSCLC
HCC-2998 colon = tested on: HCC-2998 colon
HCT-116 colon = tested on: HCT-116 colon
HCT-15 colon = tested on: HCT-15 colon
HL-60(TB) leukemia = tested on: HL-60(TB) leukemia
HOP-62 NSCLC = tested on: HOP-62 NSCLC
HOP-92 NSCLC = tested on: HOP-92 NSCLC
HS 578T breast = tested on: HS 578T breast
HT29 colon = tested on: HT29 colon
IGROV1 ovarian = tested on: IGROV1 ovarian
K-562 leukemia = tested on: K-562 leukemia
KM12 colon = tested on: KM12 colon
LOX IMVI melanoma = tested on: LOX IMVI melanoma
M14 melanoma = tested on: M14 melanoma
MALME-3M melanoma = tested on: MALME-3M melanoma
MCF7 breast = tested on: MCF7 breast
MDA-MB-231 breast = tested on: MDA-MB-231 breast
MDA-MB-435 = tested on: MDA-MB-435
MOLT-4 leukemia = tested on: MOLT-4 leukemia
NCI-H226 lung = tested on: NCI-H226 lung
NCI-H23 lung = tested on: NCI-H23 lung
NCI-H460 lung = tested on: NCI-H460 lung
NCI-H522 lung = tested on: NCI-H522 lung
NCI/ADR-RES ovarian = tested on: NCI/ADR-RES ovarian
OVCAR-3 ovarian = tested on: OVCAR-3 ovarian
OVCAR-4 ovarian = tested on: OVCAR-4 ovarian
OVCAR-5 ovarian = tested on: OVCAR-5 ovarian
OVCAR-8 ovarian = tested on: OVCAR-8 ovarian
PC-3 prostate = tested on: PC-3 prostate
RPMI-8226 leukemia = tested on: RPMI-8226 leukemia
RXF 393 renal = tested on: RXF 393 renal
SF-268 CNS = tested on: SF-268 CNS
SF-295 CNS = tested on: SF-295 CNS
SF-539 CNS = tested on: SF-539 CNS
SK-MEL-2 melanoma = tested on: SK-MEL-2 melanoma
SK-MEL-28 melanoma = tested on: SK-MEL-28 melanoma
SK-MEL-5 melanoma = tested on: SK-MEL-5 melanoma
SK-OV-3 ovarian = tested on: SK-OV-3 ovarian
SN12C renal = tested on: SN12C renal
SNB-19 CNS = tested on: SNB-19 CNS
SNB-75 CNS = tested on: SNB-75 CNS
SR leukemia = tested on: SR leukemia
SW-620 colon = tested on: SW-620 colon
T-47D breast = tested on: T-47D breast
TK-10 renal = tested on: TK-10 renal
U251 CNS = tested on: U251 CNS
UACC-257 melanoma = tested on: UACC-257 melanoma
UACC-62 melanoma = tested on: UACC-62 melanoma
UO-31 renal = tested on: UO-31 renal

O[C@H]1CO[C@H]2[C@@H]1OC[C@@H]2Oc1ccc(Nc2ccnc(Nc3ccc(O[C@H]4CO[C@H]5[C@@H]4OC[C@@H]5O)c(Cl)c3)n2)cc1Cl
GI50 (786-0 renal): 2980 nM | TGI (786-0 renal): 15100 nM | GI50 (A549 NSCLC): 2840 nM | TGI (A549 NSCLC): 11500 nM | GI50 (ACHN renal): 2800 nM | TGI (ACHN renal): 10600 nM | GI50 (BT-549 breast): 2200 nM | TGI (BT-549 breast): 8140 nM | GI50 (CAKI-1 renal): 1790 nM | TGI (CAKI-1 renal): 10200 nM | GI50 (CCRF-CEM leukemia): 666 nM | TGI (CCRF-CEM leukemia): 5310 nM | GI50 (COLO 205 colon): 1860 nM | TGI (COLO 205 colon): 6160 nM | GI50 (DU-145 prostate): 1560 nM | TGI (DU-145 prostate): 4190 nM | GI50 (EKVX NSCLC): 2400 nM | TGI (EKVX NSCLC): 8860 nM | GI50 (HCC-2998 colon): 2270 nM | TGI (HCC-2998 colon): 6550 nM | GI50 (HCT-116 colon): 2240 nM | TGI (HCT-116 colon): 9120 nM | GI50 (HCT-15 colon): 2320 nM | TGI (HCT-15 colon): 6600 nM | GI50 (HL-60(TB) leukemia): 1570 nM | TGI (HL-60(TB) leukemia): 4700 nM | GI50 (HOP-62 NSCLC): 1710 nM | TGI (HOP-62 NSCLC): 4030 nM | GI50 (HOP-92 NSCLC): 1520 nM | TGI (HOP-92 NSCLC): 3150 nM | GI50 (HS 578T breast): 1290 nM | TGI (HS 578T breast): 4800 nM | GI50 (HT29 colon): 2480 nM | TGI (HT29 colon): 15400 nM | GI50 (IGROV1 ovarian): 757 nM | TGI (IGROV1 ovarian): 6080 nM | GI50 (K-562 leukemia): 1270 nM | TGI (K-562 leukemia): 18400 nM | GI50 (KM12 colon): 1360 nM | TGI (KM12 colon): 3480 nM | GI50 (LOX IMVI melanoma): 1260 nM | TGI (LOX IMVI melanoma): 3180 nM | GI50 (M14 melanoma): 1480 nM | TGI (M14 melanoma): 4180 nM | GI50 (MALME-3M melanoma): 1090 nM | TGI (MALME-3M melanoma): 3090 nM | GI50 (MCF7 breast): 1730 nM | TGI (MCF7 breast): 5440 nM | GI50 (MDA-MB-231 breast): 1810 nM | TGI (MDA-MB-231 breast): 6040 nM | GI50 (MDA-MB-435): 2310 nM | TGI (MDA-MB-435): 10000 nM | GI50 (MOLT-4 leukemia): 1720 nM | TGI (MOLT-4 leukemia): 6040 nM | GI50 (NCI-H226 lung): 1480 nM | TGI (NCI-H226 lung): 3610 nM | GI50 (NCI-H23 lung): 1490 nM | TGI (NCI-H23 lung): 4600 nM | GI50 (NCI-H460 lung): 1400 nM | TGI (NCI-H460 lung): 3050 nM | GI50 (NCI-H522 lung): 1170 nM | TGI (NCI-H522 lung): 3690 nM | GI50 (NCI/ADR-RES ovarian): 5820 nM | TGI (NCI/ADR-RES ovarian): > 100000 nM | GI50 (OVCAR-3 ovarian): 1560 nM | TGI (OVCAR-3 ovarian): 7170 nM | GI50 (OVCAR-4 ovarian): 1540 nM | TGI (OVCAR-4 ovarian): 5240 nM | GI50 (OVCAR-5 ovarian): 2470 nM | TGI (OVCAR-5 ovarian): 8030 nM | GI50 (OVCAR-8 ovarian): 1380 nM | TGI (OVCAR-8 ovarian): 11300 nM | GI50 (PC-3 prostate): 2260 nM | TGI (PC-3 prostate): 11200 nM | GI50 (RPMI-8226 leukemia): 1050 nM | TGI (RPMI-8226 leukemia): 3240 nM | GI50 (RXF 393 renal): 1500 nM | TGI (RXF 393 renal): 3800 nM | GI50 (SF-268 CNS): 1630 nM | TGI (SF-268 CNS): 4980 nM | GI50 (SF-295 CNS): 1650 nM | TGI (SF-295 CNS): 3220 nM | GI50 (SF-539 CNS): 2220 nM | TGI (SF-539 CNS): 7160 nM | GI50 (SK-MEL-2 melanoma): 1710 nM | TGI (SK-MEL-2 melanoma): 5020 nM | GI50 (SK-MEL-28 melanoma): 3040 nM | TGI (SK-MEL-28 melanoma): 11600 nM | GI50 (SK-MEL-5 melanoma): 1170 nM | TGI (SK-MEL-5 melanoma): 2430 nM | GI50 (SK-OV-3 ovarian): 2530 nM | TGI (SK-OV-3 ovarian): 10000 nM | GI50 (SN12C renal): 1590 nM | TGI (SN12C renal): 6150 nM | GI50 (SNB-19 CNS): 2750 nM | TGI (SNB-19 CNS): 7980 nM | GI50 (SNB-75 CNS): 1270 nM | TGI (SNB-75 CNS): 4770 nM | GI50 (SR leukemia): 2280 nM | TGI (SR leukemia): 15300 nM | GI50 (SW-620 colon): 2360 nM | TGI (SW-620 colon): 6860 nM | GI50 (T-47D breast): 456 nM | TGI (T-47D breast): 2890 nM | GI50 (TK-10 renal): 2140 nM | TGI (TK-10 renal): 10500 nM | GI50 (U251 CNS): 1620 nM | TGI (U251 CNS): 4020 nM | GI50 (UACC-257 melanoma): 2700 nM | TGI (UACC-257 melanoma): 10200 nM | GI50 (UACC-62 melanoma): 1110 nM | TGI (UACC-62 melanoma): 2750 nM | GI50 (UO-31 renal): 1550 nM | TGI (UO-31 renal): 3060 nM

From PubChem BioAssay (NCI)
